# Laboratory results as given in publication PMC10325900, “A conserved motif in the disordered linker of human MLH1 is vital for DNA mismatch repair and its function is diminished by a cancer family mutation” (Nucleic Acids Research, 2023).
# No end group written: not given here.
# Legend:
# [1] = system: DNA mismatch repair reaction of MMR-proficient HEK293 cell extract; test: MMR competition test with nuclear extract of MMR-proficient HEK293 cells; format: biochemical, human; conditions: up to 75 μM ConMot-32 peptide
# Protocol: Mismatch repair activity was assessed as described in detail before ([79],[81]) (Supplementary Figure S3). […] Mismatched DNA plasmid substrate (Supplementary Figure S3) prepared according to previously published procedures ([81–83]) was added, and reactions in a final volume of 25 μl were incubated at 37°C for 15 min. Repair efficiency was scored by purifying the mismatched DNA plasmid from the reaction and assessing the fraction of homoduplex sequence by restriction digestion of the mismatched site using EcoRV. The substrate was additionally linearized with AseI.
# For complementation assays with peptide, the indicated peptide(s) were used at stock concentrations of 50 or 500 μM in HEPES–KOH 20 mM pH 7.6 and supplemented to the MMR reactions. […]
# Figure 4. […] (C) The concentration-dependence of the MMR-activating effect of the ConMot-32 peptide observed in (B) was measured over a concentration range from 1–75 μM. […] Into this diagram, the average MMR activities (and standard deviations) measured in >3 of the experiment exemplarily shown in C were introduced as bars at ConMot-32 peptide concentrations of 1, 2.5, 7.5, 18 and 75 μM. […]
# In parallel, the single- strand nick is ligated. […] 40- 80% absolute repair, determined as signal intensities of the repair bands divided by sum of […]
# [2] = Circular dichroism (CD) of ConMot peptide; format: physicochemical; conditions: 33 μM peptide, 20 mM Na-phosphate pH 7.2, 20°C, 190–300 nm, three scans, 1 mm light path
# Protocol: A blank was measured with buffer. […] A blank with buffer only was subtracted.
# MLH1-PMS2 = test: Comparison of MMR restoration with theoretical binding curves of peptide to protein; parameters: species or system human; conditions: theoretical binding curves at 11.1 nM MLH1; not a direct binding measurement; read-out: KD whose theoretical fraction of peptide binding to a protein corresponds to the degree of MMR restoration
# Protocol: Figure 4. Reaction of DNA mismatch repair to addition of ConMot peptide. (A) Nuclear extract of MLH1-proficient HEK293 cells was used for performing the DNA mismatch repair reaction. Four reactions were undertaken, with two reactions supplemented with either 7.5 μM or 75 μM ConMot-32 peptide. A negative control reaction was performed by omitting the 37°C repair incubation. (B) MMR reactions were performed with nuclear extract of MLH1-deficient HEK293T cells supplemented with extract of cells transfected either with wildtype MLH1-PMS2 (positive control) or with MLH1-ΔConMot-PMS2. […] (C) The concentration-dependence of the MMR-activating effect of the ConMot-32 peptide observed in (B) was measured over a concentration range from 1–75 μM. […] Into this diagram, the average MMR activities (and standard deviations) measured in >3 of the experiment exemplarily shown in C were introduced as bars at ConMot-32 peptide concentrations of 1, 2.5, 7.5, 18 and 75 μM.
# We investigated the effect of the ConMot peptide more closely by titrating the required peptide concentrations for activation. We determined that the mismatch repair reactions performed in this study contained approximately 280 fmol MLH1 (Supplementary Figure S4A and B), which is in good agreement with previous quantifications of MLH1-PMS2 in cells and extracts ([96]). […]
# B. Immunoblot band intensities were determined. […]
# [3] = 33 μM peptide, 20 mM Na-phosphate pH 7.2, 25–95°C, detection at 222 nm
# Protocol: For the CD analysis, 33 μM ConMot peptide was used in 20 mM Na-phosphate buffer pH 7.2, 20°C. Three scans were performed with 190–300 nm wavelength, using a 1 mm light path. A blank was measured with buffer. For the melting analysis, 33 μM ConMot peptide was used in 20 mM Na-phosphate buffer pH 7.2. Detection was at 222 nm, temperature was scanned from 25–95°C. A blank with buffer only was subtracted.
sequence,measurement,setting,value
SGSSDKVYAHQMVRTDSREQKLDAFLQPLSKP [ConMot-32],interference with regular DNA mismatch repair,[1]; listed as ConMot peptide,did not detectably interfere
same,interference with regular DNA mismatch repair,[1]; listed as ConMot-peptide,not attenuated
same,secondary structure formation by circular dichroism,[2],Neither investigation provided evidence for secondary structure formation
same,Kd,MLH1-PMS2,~7.5 µM
same,secondary structure formation by melting analysis,[3],Neither investigation provided evidence for secondary structure formation
